Data: article PMC11871328 (Communications Biology, 2025)

Tests used:
[1] = in words; from earlier studies; cited from earlier work
BAG-1:HSP70 interaction = conditions: in words; from earlier studies; cited from earlier work
[2] = test system: MCF-7 breast cancer cells; test: MTT cell viability assay, MCF-7; type: cell-based, human; conditions: in words

Compound	Solubility in water [1]	Inhibition of BAG-1:HSP70 interaction (BAG-1:HSP70 interaction)	Effect on viability of MCF-7 cells [2]
CCNc1ccc(-c2nc3ccc(C)cc3s2)cc1 [Thio-2, N-Ethyl-4-(6-methyl-1,3-benzothiazol-2-yl)aniline]	poor solubility in water	moderate inhibition	–
N=C(N)NCCC[C@H](NC(=O)CN)C(=O)N[C@@H](CCCCN)C(=O)N[C@@H](CCCCN)C(=O)N[C@@H](CCCNC(=N)N)C(=O)N[C@@H](CCCNC(=N)N)C(=O)N[C@@H](CCC(N)=O)C(=O)N[C@@H](CCCNC(=N)N)C(=O)N[C@@H](CCCNC(=N)N)C(=O)N[C@@H](CCCNC(=N)N)C(=O)N1CCC[C@H]1C(=O)N[C@@H](CCC(N)=O)C(N)=O [TAT only]	–	–	did not affect the viability of the cells
